Data reported in ChEMBL document CHEMBL3991601, “The target landscape of clinical kinase drugs” (Science, 2017).
Calls of active or inactive are those of the source.

How the values were obtained:
[1] = target: 26S proteasome regulatory subunit 6B (Homo sapiens, UniProt P43686)
[2] = target: Structural maintenance of chromosomes protein 2 (Homo sapiens, UniProt O95347)
[3] = target: T1, Serine/threonine-protein kinase NLK (Homo sapiens, UniProt Q9UBE8)
T1 sequence (Q9UBE8 whole entry): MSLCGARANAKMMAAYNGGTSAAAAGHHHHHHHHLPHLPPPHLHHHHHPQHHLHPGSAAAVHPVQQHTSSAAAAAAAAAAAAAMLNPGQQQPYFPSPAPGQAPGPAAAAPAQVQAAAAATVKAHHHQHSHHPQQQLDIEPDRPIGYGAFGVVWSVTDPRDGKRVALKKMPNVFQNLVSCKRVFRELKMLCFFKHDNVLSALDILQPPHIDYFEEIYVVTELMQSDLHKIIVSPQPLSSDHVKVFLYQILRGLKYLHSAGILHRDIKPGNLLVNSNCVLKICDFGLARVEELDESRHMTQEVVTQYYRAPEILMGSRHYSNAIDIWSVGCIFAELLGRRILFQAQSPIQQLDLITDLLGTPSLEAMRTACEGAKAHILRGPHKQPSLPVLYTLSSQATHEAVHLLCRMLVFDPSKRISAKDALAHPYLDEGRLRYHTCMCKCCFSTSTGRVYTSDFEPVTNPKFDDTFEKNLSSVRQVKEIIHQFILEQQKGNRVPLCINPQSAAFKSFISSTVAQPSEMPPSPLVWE

[4] = target: T2, Tyrosine--tRNA ligase, cytoplasmic (Homo sapiens, UniProt P54577)
T2 sequence (P54577 whole entry): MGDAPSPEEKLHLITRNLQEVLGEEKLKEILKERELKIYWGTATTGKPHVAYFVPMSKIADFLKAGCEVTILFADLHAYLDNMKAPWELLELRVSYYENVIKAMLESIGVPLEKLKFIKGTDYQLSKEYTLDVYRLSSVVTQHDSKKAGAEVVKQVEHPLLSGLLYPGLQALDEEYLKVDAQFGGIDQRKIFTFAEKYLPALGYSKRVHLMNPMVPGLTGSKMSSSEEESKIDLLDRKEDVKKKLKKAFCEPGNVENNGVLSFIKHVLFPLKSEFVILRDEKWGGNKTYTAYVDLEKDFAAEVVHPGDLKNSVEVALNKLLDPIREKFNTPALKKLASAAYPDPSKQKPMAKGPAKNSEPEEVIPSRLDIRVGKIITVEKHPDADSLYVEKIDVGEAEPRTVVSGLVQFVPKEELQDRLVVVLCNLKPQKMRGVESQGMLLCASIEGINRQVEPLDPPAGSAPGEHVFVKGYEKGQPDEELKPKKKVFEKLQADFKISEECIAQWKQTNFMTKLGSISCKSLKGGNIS

[5] = target: Tyrosine-protein kinase Fyn (Homo sapiens, UniProt P06241)
[6] = target: Serine/threonine-protein kinase/endoribonuclease IRE2 (Homo sapiens, UniProt Q76MJ5)
[7] = target: T3, Ras-related protein Rab-27A (Homo sapiens, UniProt P51159)
T3 sequence (P51159 whole entry): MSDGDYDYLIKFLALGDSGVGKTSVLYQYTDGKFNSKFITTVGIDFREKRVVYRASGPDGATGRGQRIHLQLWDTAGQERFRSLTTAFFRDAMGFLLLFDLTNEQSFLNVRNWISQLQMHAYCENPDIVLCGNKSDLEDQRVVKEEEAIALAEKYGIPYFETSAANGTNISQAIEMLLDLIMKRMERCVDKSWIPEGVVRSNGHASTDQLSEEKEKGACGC

[8] = target: T4, Non-receptor tyrosine-protein kinase TNK1 (Homo sapiens, UniProt Q13470)
T4 sequence (Q13470 whole entry): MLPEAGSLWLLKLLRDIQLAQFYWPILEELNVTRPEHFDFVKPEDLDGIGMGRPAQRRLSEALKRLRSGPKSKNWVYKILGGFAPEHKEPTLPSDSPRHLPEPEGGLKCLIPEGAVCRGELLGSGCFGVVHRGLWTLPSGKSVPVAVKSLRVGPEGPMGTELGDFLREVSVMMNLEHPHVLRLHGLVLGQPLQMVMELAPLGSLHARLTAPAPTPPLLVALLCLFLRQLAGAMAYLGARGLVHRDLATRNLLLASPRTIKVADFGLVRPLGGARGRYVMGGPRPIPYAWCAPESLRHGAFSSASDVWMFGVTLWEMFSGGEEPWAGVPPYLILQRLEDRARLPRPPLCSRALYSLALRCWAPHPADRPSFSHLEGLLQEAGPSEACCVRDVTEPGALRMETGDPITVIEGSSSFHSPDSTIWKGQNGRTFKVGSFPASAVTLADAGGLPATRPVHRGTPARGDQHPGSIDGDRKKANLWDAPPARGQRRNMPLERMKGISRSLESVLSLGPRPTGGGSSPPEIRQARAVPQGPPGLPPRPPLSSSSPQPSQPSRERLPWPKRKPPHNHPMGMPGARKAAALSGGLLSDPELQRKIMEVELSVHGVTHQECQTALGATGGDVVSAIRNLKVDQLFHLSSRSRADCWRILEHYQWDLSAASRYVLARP

[9] = target: STE20-like serine/threonine-protein kinase (Homo sapiens, UniProt Q9H2G2)
[10] = target: Ephrin type-A receptor 5 (Homo sapiens, UniProt P54756)
[11] = target: T5, Succinate--CoA ligase [ADP-forming] subunit beta, mitochondrial (Homo sapiens, UniProt Q9P2R7)
T5 sequence (Q9P2R7 whole entry): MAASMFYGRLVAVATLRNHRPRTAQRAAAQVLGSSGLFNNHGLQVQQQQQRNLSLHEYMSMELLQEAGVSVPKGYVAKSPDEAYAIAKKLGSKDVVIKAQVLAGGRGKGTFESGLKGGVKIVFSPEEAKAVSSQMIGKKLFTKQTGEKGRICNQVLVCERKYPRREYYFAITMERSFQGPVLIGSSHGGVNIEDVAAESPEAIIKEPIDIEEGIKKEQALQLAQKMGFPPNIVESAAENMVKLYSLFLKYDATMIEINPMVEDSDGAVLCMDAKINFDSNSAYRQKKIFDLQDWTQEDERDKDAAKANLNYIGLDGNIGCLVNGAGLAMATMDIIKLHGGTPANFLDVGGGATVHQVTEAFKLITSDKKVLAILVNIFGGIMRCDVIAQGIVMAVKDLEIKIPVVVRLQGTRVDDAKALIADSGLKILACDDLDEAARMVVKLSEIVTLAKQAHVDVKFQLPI
Note: in the data inactive means no Kd found up to 30 µM.

Chain of STE20-like serine/threonine-protein kinase (Q9H2G2 whole entry): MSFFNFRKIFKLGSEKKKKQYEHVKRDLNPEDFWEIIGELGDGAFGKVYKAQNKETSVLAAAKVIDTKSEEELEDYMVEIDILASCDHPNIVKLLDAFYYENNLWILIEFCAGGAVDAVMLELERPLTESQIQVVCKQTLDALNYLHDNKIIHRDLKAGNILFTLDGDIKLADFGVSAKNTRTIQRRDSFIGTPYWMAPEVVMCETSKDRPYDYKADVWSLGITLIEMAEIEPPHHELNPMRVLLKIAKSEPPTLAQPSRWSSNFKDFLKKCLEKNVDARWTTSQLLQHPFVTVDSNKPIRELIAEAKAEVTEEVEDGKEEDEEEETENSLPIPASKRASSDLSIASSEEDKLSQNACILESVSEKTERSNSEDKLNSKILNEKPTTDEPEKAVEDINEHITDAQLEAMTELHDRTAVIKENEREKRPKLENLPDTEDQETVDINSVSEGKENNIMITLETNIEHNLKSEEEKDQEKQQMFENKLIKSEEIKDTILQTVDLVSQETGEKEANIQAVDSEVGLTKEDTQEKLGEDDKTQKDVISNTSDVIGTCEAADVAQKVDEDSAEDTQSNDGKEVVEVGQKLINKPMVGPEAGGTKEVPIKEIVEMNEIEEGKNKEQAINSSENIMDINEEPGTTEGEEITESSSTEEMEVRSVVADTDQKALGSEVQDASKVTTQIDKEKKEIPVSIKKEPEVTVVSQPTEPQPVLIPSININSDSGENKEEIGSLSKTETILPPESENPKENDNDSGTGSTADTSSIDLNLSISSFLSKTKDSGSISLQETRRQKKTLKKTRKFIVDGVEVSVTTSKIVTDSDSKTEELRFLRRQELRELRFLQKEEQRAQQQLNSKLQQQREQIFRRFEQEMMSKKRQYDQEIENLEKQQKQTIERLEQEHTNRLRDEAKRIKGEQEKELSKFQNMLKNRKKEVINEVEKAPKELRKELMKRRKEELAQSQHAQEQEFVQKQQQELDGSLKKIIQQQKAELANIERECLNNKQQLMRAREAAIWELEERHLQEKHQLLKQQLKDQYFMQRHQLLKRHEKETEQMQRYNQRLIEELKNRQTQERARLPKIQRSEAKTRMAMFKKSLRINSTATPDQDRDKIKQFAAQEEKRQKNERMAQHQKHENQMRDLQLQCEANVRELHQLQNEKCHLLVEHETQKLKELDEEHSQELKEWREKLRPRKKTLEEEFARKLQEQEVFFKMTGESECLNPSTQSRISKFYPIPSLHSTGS
Chain of 26S proteasome regulatory subunit 6B (P43686 whole entry): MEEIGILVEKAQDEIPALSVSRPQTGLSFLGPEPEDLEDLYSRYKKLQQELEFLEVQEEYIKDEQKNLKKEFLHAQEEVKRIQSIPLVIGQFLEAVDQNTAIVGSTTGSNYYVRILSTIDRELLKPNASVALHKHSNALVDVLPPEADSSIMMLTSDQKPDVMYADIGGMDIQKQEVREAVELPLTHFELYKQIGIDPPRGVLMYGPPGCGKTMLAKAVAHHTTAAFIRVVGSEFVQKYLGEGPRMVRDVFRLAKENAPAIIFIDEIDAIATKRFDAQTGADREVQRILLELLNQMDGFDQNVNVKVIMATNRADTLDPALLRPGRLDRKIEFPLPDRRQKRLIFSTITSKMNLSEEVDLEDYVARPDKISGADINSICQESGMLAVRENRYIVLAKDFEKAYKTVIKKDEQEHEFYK
Chain of Tyrosine-protein kinase Fyn (P06241 whole entry): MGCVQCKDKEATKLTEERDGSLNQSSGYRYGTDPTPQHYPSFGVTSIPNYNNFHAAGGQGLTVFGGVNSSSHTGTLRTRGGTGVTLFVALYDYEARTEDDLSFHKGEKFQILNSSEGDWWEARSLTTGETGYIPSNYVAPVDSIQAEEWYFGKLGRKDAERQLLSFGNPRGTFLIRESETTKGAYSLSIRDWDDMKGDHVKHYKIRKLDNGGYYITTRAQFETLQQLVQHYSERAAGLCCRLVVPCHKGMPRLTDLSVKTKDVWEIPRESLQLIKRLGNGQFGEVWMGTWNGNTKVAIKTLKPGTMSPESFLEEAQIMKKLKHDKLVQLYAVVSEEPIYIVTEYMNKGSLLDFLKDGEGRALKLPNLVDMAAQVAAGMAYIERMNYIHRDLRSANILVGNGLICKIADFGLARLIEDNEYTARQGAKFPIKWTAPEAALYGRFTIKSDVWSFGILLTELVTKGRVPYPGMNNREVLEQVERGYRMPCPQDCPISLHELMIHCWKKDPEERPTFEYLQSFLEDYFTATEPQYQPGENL
Chain of Ephrin type-A receptor 5 (P54756 whole entry): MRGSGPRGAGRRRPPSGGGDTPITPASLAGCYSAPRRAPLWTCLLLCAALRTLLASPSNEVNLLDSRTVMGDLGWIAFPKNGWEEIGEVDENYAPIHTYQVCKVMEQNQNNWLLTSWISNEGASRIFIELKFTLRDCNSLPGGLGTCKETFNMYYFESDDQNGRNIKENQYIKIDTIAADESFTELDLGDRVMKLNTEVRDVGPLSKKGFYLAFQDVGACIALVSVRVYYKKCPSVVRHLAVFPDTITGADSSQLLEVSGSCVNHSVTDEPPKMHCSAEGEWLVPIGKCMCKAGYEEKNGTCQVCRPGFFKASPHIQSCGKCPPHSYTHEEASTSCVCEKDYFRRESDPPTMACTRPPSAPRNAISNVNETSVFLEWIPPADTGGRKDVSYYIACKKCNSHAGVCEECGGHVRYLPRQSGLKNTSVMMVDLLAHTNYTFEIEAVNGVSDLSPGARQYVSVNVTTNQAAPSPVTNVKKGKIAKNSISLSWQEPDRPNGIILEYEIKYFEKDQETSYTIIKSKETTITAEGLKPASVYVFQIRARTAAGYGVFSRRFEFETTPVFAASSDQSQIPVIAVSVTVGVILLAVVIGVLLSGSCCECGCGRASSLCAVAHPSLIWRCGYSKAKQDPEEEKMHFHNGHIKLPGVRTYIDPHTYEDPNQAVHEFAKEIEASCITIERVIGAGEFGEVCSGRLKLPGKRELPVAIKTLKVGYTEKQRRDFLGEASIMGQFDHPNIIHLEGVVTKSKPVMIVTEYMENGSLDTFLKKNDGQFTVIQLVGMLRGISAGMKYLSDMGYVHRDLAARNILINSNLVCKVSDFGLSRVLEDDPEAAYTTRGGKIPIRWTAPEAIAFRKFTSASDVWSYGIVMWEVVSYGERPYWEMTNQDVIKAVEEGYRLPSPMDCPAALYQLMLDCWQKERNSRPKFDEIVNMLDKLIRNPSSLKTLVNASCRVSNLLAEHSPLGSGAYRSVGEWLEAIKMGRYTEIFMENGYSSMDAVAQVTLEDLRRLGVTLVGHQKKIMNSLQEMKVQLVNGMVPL
Chain of Serine/threonine-protein kinase/endoribonuclease IRE2 (Q76MJ5 whole entry): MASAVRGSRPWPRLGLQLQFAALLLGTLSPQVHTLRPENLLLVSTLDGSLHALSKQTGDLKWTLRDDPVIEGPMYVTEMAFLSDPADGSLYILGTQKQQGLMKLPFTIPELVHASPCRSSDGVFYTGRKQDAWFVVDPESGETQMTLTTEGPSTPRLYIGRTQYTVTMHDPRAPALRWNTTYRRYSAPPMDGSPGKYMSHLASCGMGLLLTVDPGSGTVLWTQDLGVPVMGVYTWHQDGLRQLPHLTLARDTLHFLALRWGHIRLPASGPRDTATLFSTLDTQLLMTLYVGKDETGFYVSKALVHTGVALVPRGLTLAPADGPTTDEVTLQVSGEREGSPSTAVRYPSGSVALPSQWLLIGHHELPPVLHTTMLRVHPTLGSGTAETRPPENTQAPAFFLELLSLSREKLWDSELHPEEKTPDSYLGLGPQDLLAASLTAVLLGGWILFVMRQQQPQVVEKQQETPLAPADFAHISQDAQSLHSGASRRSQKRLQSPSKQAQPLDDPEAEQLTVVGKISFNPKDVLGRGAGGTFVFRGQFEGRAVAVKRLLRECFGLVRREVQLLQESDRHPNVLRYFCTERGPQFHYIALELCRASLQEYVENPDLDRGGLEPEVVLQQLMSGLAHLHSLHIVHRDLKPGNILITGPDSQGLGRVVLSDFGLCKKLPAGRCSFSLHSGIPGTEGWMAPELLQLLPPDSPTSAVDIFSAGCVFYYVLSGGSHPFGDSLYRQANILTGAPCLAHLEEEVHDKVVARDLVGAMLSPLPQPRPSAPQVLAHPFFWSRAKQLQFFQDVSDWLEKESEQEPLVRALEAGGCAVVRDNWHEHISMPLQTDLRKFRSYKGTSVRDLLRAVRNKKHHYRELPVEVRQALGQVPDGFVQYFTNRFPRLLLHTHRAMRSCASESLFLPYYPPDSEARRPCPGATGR

Kd [1] | Kd [2] | Kd [3] | Kd [4] | Kd [5] | Kd [6] | Kd [7] | Kd [8] | Kd [9] | Kd [10] | Kd [11] | Structure (SMILES)
> 30 µM (inactive) | > 30 µM (inactive) | > 30 µM (inactive) | > 30 µM (inactive) | > 30 µM (inactive) | > 30 µM (inactive) | > 30 µM (inactive) | > 30 µM (inactive) | > 30 µM (inactive) | 1.12 µM | > 30 µM (inactive) | CNC(=O)c1cc(Oc2ccc(NC(=O)Nc3ccc(Cl)c(C(F)(F)F)c3)c(F)c2)ccn1 [REGORAFENIB]
> 30 µM (inactive) | > 30 µM (inactive) | > 30 µM (inactive) | > 30 µM (inactive) | 1.44 µM (active) | > 30 µM (inactive) | > 30 µM (inactive) | > 30 µM (inactive) | > 30 µM (inactive) | 0.345 µM | > 30 µM (inactive) | Cc1ccc(NC(=O)c2ccc(CN3CC[C@H](N(C)C)C3)c(C(F)(F)F)c2)cc1Nc1nccc(-c2cncnc2)n1 [BAFETINIB]
> 30 µM (inactive) | > 30 µM (inactive) | > 30 µM (inactive) | > 30 µM (inactive) | > 30 µM (inactive) | > 30 µM (inactive) | > 30 µM (inactive) | > 30 µM (inactive) | > 30 µM (inactive) | > 30 µM (inactive) | > 30 µM (inactive) | Cn1cc(-c2ccc(F)c(C(F)(F)F)c2)nc1C1CCN(c2ncnc3[nH]ncc23)CC1 [LY-2584702]
> 30 µM (inactive) | > 30 µM (inactive) | 0.027 µM | > 30 µM (inactive) | > 30 µM (inactive) | > 30 µM (inactive) | > 30 µM (inactive) | > 30 µM (inactive) | > 30 µM (inactive) | > 30 µM (inactive) | > 30 µM (inactive) | O=C(Nc1ccc(-c2ccnc(Nc3ccc(N4CCOCC4)cc3)n2)cc1)C1CCCN1 (stereo not drawn) [XL-019]
> 30 µM (inactive) | > 30 µM (inactive) | > 30 µM (inactive) | > 30 µM (inactive) | > 30 µM (inactive) | > 30 µM (inactive) | > 30 µM (inactive) | > 30 µM (inactive) | 3.59 µM (active) | > 30 µM (inactive) | > 30 µM (inactive) | CN1CCC(CNc2ccc3ncc(-c4cccc(OC(F)(F)F)c4)n3n2)CC1 [SGI-1776]
> 30 µM (inactive) | > 30 µM (inactive) | > 30 µM (inactive) | > 30 µM (inactive) | > 30 µM (inactive) | > 30 µM (inactive) | > 30 µM (inactive) | > 30 µM (inactive) | > 30 µM (inactive) | > 30 µM (inactive) | > 30 µM (inactive) | Cc1c(F)cc(C(=O)NC2CC2)cc1-c1ccc(C(=O)NCC(C)(C)C)cn1 [LOSMAPIMOD]

Second part, the compound before the results:

Structure (SMILES) | Kd [1] | Kd [2] | Kd [3] | Kd [4] | Kd [5] | Kd [6] | Kd [7] | Kd [8] | Kd [9] | Kd [10] | Kd [11]
COc1cc2nccc(Oc3ccc(NC(=O)NC4CC4)c(Cl)c3)c2cc1C(N)=O [LENVATINIB] | > 30 µM (inactive) | > 30 µM (inactive) | > 30 µM (inactive) | > 30 µM (inactive) | > 30 µM (inactive) | > 30 µM (inactive) | > 30 µM (inactive) | > 30 µM (inactive) | 3.85 µM (active) | > 30 µM (inactive) | > 30 µM (inactive)
CN1CCC(COc2cnc(-c3cccc(Cn4nc(-c5cccc(C#N)c5)ccc4=O)c3)nc2)CC1 [TEPOTINIB] | > 30 µM (inactive) | > 30 µM (inactive) | > 30 µM (inactive) | > 30 µM (inactive) | > 30 µM (inactive) | > 30 µM (inactive) | > 30 µM (inactive) | > 30 µM (inactive) | > 30 µM (inactive) | > 30 µM (inactive) | > 30 µM (inactive)
O=C(c1ccc(F)c(F)c1Nc1ccc(I)cc1F)N1CC(O)([C@@H]2CCCCN2)C1 [COBIMETINIB] | > 30 µM (inactive) | > 30 µM (inactive) | > 30 µM (inactive) | > 30 µM (inactive) | > 30 µM (inactive) | > 30 µM (inactive) | > 30 µM (inactive) | > 30 µM (inactive) | > 30 µM (inactive) | > 30 µM (inactive) | > 30 µM (inactive)
COc1cc2nccc(Oc3ccc(NC(=O)Nc4cc(C)on4)c(Cl)c3)c2cc1OC [TIVOZANIB] | > 30 µM (inactive) | > 30 µM (inactive) | > 30 µM (inactive) | > 30 µM (inactive) | > 30 µM (inactive) | > 30 µM (inactive) | > 30 µM (inactive) | > 30 µM (inactive) | > 30 µM (inactive) | 0.601 µM (active) | > 30 µM (inactive)
CCS(=O)(=O)N1CC(CC#N)(n2cc(-c3ncnc4[nH]ccc34)cn2)C1 [BARICITINIB] | > 30 µM (inactive) | > 30 µM (inactive) | > 30 µM (inactive) | > 30 µM (inactive) | > 30 µM (inactive) | > 30 µM (inactive) | > 30 µM (inactive) | 0.622 µM | > 30 µM (inactive) | > 30 µM (inactive) | > 30 µM (inactive)
CC[C@@H]1C(=O)N(C)c2cnc(Nc3ccc(C(=O)N[C@H]4CC[C@H](N5CCN(CC6CC6)CC5)CC4)cc3OC)nc2N1C(C)C [VOLASERTIB] | > 30 µM (inactive) | > 30 µM (inactive) | > 30 µM (inactive) | > 30 µM (inactive) | > 30 µM (inactive) | > 30 µM (inactive) | > 30 µM (inactive) | > 30 µM (inactive) | > 30 µM (inactive) | > 30 µM (inactive) | > 30 µM (inactive)
C[C@@H](c1ccc2nccn2c1)n1nnc2ncc(-c3cnn(C)c3)nc21 [SAVOLITINIB] | > 30 µM (inactive) | > 30 µM (inactive) | > 30 µM (inactive) | > 30 µM (inactive) | > 30 µM (inactive) | > 30 µM (inactive) | > 30 µM (inactive) | > 30 µM (inactive) | > 30 µM (inactive) | > 30 µM (inactive) | > 30 µM (inactive)
